These results are taken from US20220354811A1, “METHODS AND COMPOSITIONS FOR MODULATING MACROPHAGES POLARIZATION” (INSERM (INSTITUT NATIONAL DE LA SANTÉ ET DE LA RECHERCHE …, priority 2019, published 2022).

The subject of assay [1] is CSF-1-derived human macrophages. The assay is described as follows: IL-4-induced M2 polarization of CSF-1-derived macrophages (flow cytometry CD200R/CD206, CD200R/CD163). It counts as cell-based. The method, then: FIG. 6. […] Human monocytes were differentiated during 7 days with 100 ng/mL CSF-1. […] The results are expressed as MFI and represent the mean of 3 independent experiments performed in duplicate. **P<0.01 according to a paired student t test (B) Macrophage polarization was evaluated by 3-color flow cytometric analysis. The percentage indicates cells that express both CD206/CD200R or CD163/CD200R. The results represent the mean±SD of 3 independent experiments performed in duplicate. **P<0.01, ***P<0.001 according to a paired student t test. Human monocytes were differentiated during 5 days with 100 ng/mL CSF-1 and then polarized into M2-macrophages (IL-4) for 2 days. […] The results are expressed as percentage of CD200R/CD206 or CD200R/CD163 double positive cells and represent the mean±SD of 3 independent experiments performed in duplicate.
To analyze the macrophagic differentiation of monocytes, the cells were washed with ice-cold phosphate buffered saline (PBS, Life Technologies, 14190169), incubated at 4° C. for 10 min in PBS/bovine serum albumin (BSA 0.5%, Dutscher, 871002) with anti-CD16, anti-CD71 and anti-CD163 or isotype controls (Miltenyi and BD Biosciences, catalog numbers were 130-113-396, 130-097-628 and 551374). Finally, the cells were washed and fixed in 2% paraformaldehyde (EMS, 15710). To perform macrophage polarization, purified monocytes were plated at 0.3×10^6 per mL in RPMI 1640 medium with glutamax-I supplemented with 10% (vol/vol) fetal bovine serum plus CSF-1 for 5+2 days to differentiate into M0 macrophages. 20 ng/mL IL-4 (Miltenyi, 130-094-117) was added after 5 days of differentiation for two days to polarize into M2-macrophages. […] Fluorescence was measured with a MACSQuant® Analyzer (Miltenyi, Paris, France). […] Fluorescence was measured with a MACSQuant® Analyzer (Miltenyi, Paris, France). […] Fluorescence, that indicate the internalization of particles, was measured with a MACSQuant® Analyzers (Miltenyi, France). Trypan blue solution was used to quench the fluorescence from particles that were not internalized. […]
On the technique in general: A flow cytometer gives signals particle by particle.

For assay [2] the following is noted: several recent studies (Frenette 2019; Barreyro 2015; Baskin-Bey 2007); cited from earlier work.

`C[C@H](NC(=O)C(=O)Nc1ccccc1C(C)(C)C)C(=O)N[C@@H](CC(=O)O)C(=O)COc1c(F)c(F)cc(F)c1F` [Emricasan, (S)-3-((S)-2-(2-((2-(tert-Butyl)phenyl)amino)-2-oxoacetamido)propanamido)-4-oxo-5-(2,3,5,6-tetrafluorophenoxy)pentanoic acid]: in assay [1] (5 days CSF-1 then IL-4 2 days), the M1-like markers entry is reported as “induced M1-like markers” and the “M2-like polarization of M0 macrophages induced by IL4” value was “dampened”. Moreover, the “generation of CD200R+/CD206+ and CD200R+/CD163+ double-positive cells” value in assay [1] (IL4-polarized macrophages, Emricasan added 16 h before IL-4) is “inhibited”. Moreover, in assay [2], the “liver functions in patients suffering liver diseases” value is “improve liver functions”.
